Assay results published in patent US8551937B2, “Peptide having an extending action for half-life of object peptide in plasma” (priority 2008, dated 2013).
Where a SMILES comes first, the peptide text is derived from it. Bridges are numbered along the chain shown (N, C = ends).

What was measured:
in vivo = conditions: rat; for AUC(0-inf) / C0 / half-life / Cmax / Tmax: male, SD, 0.1 mg/kg
Experimental: Changes in ANP immunoreactivity concentration in plasma when a native ANP and a chimeric peptide (chimeric ANP) to which a half-life-extension peptide was bestowed were administered into vein of rats were investigated.
As a test system, male rats of an SD strain of 7 weeks age (provided from Nippon Charles River) were subjected to the experiment where one group comprised three rats. […] At that time, a rabbit polyclonal antibody (#8) recognizing a ring part of ANP was used as an antibody and ^125I-[Tyr^28] α-hANP was used as a labeling compound.
Pharmacokinetic parameters were calculated from the resulting changes in immunoreactivity concentrations in plasma. At that time, WinNonlin Professional Ver. 4.0.1 (manufactured by Pharsight Corporation, U.S.A.) was used as the analytical software. Method for the calculation of each parameter is mentioned as follows.
Concentration at time 0 (C0; extrapolated value, ng/mL), area under the curve for concentration in plasma vs. time (AUC; ng.min/mL) and quenching half-life (T½; minute(s)) were calculated as follows. C0 was calculated as a value at time by means of extrapolation from the changes in immunoreactivity concentration in plasma at each blood collection period. AUC was calculated by a trapezoidal method using the immunoreactivity concentrations in plasma at all measuring points (t) and an extrapolated value until the infinitive time was determined. T½ was calculated by means of a least-squares method from the inclination of a straight line connecting several points in a disappearing phase of the immunoreactivity concentration in plasma. In the case of a subcutaneous administration, C0 was not determined but the maximum concentration in plasma (Cmax; ng/mL) and the time reaching the maximum concentration in plasma (Tmax; min) were determined.

[1] = Motilin immunoreactivity concentration in plasma, half-life after intravenous administration (Example 8); conditions: rat, in vivo, iv, 10 nmol/kg
Experimental: The experiment was carried out using rats into which polyethylene tube (PE-50 manufactured by Clay Adams) was inserted into thigh artery under an anesthetized condition with Nembutal. As to a test system, male SD strain rats (Nippon Charles River) of 7 weeks age were used where one group comprised 3 rats. Human motilin or a derivative thereof in a dose of 10 nmol/kg was administered into tail vein of the rat and the blood before the administration and until 60 minutes after the administration was periodically collected by a polyethylene tube inserted into the thigh artery. To the collected blood were added EDTA (manufactured by Dojin Laboratories) and aprotinin (manufactured by Bayer) as a stabilizer and an anti-coagulant, respectively and the plasma was separated therefrom by centrifugal separation. Motilin immunoreactivity concentration in plasma was measured by a competitive radioimmunoassay (RIA) (FIG. 8). At that time, a rabbit polyclonal antibody (#870623) which specifically recognizes the amino acid numbers 1 to 12 of native motilin shown by SEQ ID No: 102 was used as an antibody and, as a labeled compound, ^125I-[Tyr^7] human motilin was used.

Structure (SMILES): CC[C@H](C)[C@@H]1NC(=O)[C@H](CCCNC(=N)N)NC(=O)[C@H](CC(=O)O)NC(=O)[C@H](CCSC)NC(=O)[C@H](CCCNC(=N)N)NC(=O)CNC(=O)CNC(=O)[C@H](Cc2ccccc2)NC(=O)[C@@H](NC(=O)[C@@H](NC(=O)[C@H](CCC(N)=O)NC(=O)[C@H](CCC(N)=O)NC(=O)[C@H](CCCNC(=N)N)NC(=O)[C@H](CCCCN)NC(=O)[C@H](CCC(=O)O)NC(=O)[C@H](CO)NC(=O)[C@H](CCCCN)NC(=O)[C@H](CCCCN)NC(=O)[C@@H]2CCCN2C(=O)[C@@H]2CCCN2C(=O)[C@H](C)NC(=O)[C@H](CCCCN)NC(=O)[C@H](CC(C)C)NC(=O)[C@H](CCC(N)=O)NC(=O)[C@@H]2CCCN2C(=O)[C@@H](N)CCCNC(=N)N)C(C)C)CSSC[C@@H](C(=O)N[C@@H](CC(N)=O)C(=O)N[C@@H](CO)C(=O)N[C@@H](Cc2ccccc2)C(=O)N[C@@H](CCCNC(=N)N)C(=O)N[C@@H](Cc2ccc(O)cc2)C(=O)O)NC(=O)CNC(=O)[C@H](CC(C)C)NC(=O)CNC(=O)[C@H](CO)NC(=O)[C@H](CCC(N)=O)NC(=O)[C@H](C)NC(=O)CNC1=O [Chimeric ANP (C)] (H-RPQLKAPPKKSEKRQQVCFGGRMDRIGAQSGLGCNSFRY-OH; disulfide 18-34; N-terminus and C-terminus assumed)
- AUC(0-inf) (in vivo; iv): 148 ng·h/mL
- C0 (in vivo; iv): 1530 ± 442 ng/mL
- half-life (in vivo; iv): 27.2 ± 3.8 min
- AUC(0-inf) (in vivo; sc): 56.7 ng·h/mL
- Cmax (in vivo; sc): 55.1 ± 10.3 ng/mL
- Tmax (in vivo; sc): 20 min
- half-life (in vivo; sc): 37.8 ± 7.8 min
- concentration in plasma as compared with the native ANP (in vivo; iv): rising concentration in plasma
- concentration in plasma as compared with the native ANP (in vivo; sc): rising concentration in plasma

Structure (SMILES): CC[C@H](C)[C@H](NC(=O)[C@@H]1CCCN1C(=O)[C@@H](NC(=O)[C@@H](N)Cc1ccccc1)C(C)C)C(=O)N[C@@H](Cc1ccccc1)C(=O)N[C@H](C(=O)N[C@@H](Cc1ccc(O)cc1)C(=O)NCC(=O)N[C@@H](CCC(=O)O)C(=O)N[C@@H](CC(C)C)C(=O)N[C@@H](CCC(N)=O)C(=O)N[C@@H](CCCNC(=N)N)C(=O)N[C@H](C(=O)N[C@@H](CCC(N)=O)C(=O)N[C@@H](CCC(N)=O)C(=O)N[C@@H](CCCNC(=N)N)C(=O)N[C@@H](CCCCN)C(=O)N[C@@H](CCC(=O)O)C(=O)N[C@@H](CO)C(=O)NCC(=O)N[C@@H](CCCCN)C(=O)N[C@@H](CCCCN)C(=O)N1CCC[C@H]1C(=O)N1CCC[C@H]1C(=O)N[C@@H](C)C(=O)N[C@@H](CCCCN)C(=O)N[C@@H](CC(C)C)C(=O)N[C@@H](CCC(N)=O)C(=O)N1CCC[C@H]1C(=O)N[C@@H](CCCNC(=N)N)C(=O)O)C(C)C)[C@@H](C)O [Chimeric motilin (I)(MG-i19G)] (H-FVPIFTYGELQRVQQRKESGKKPPAKLQPR-OH; N-terminus and C-terminus assumed)
- half-life ([1]; male, SD): 11.6 min

Structure (SMILES): CC[C@H](C)[C@H](NC(=O)[C@@H]1CCCN1C(=O)[C@@H](NC(=O)[C@@H](N)Cc1ccccc1)C(C)C)C(=O)N[C@@H](Cc1ccccc1)C(=O)N[C@H](C(=O)N[C@@H](Cc1ccc(O)cc1)C(=O)NCC(=O)N[C@@H](CCC(=O)O)C(=O)N[C@@H](CC(C)C)C(=O)N[C@@H](CCC(N)=O)C(=O)N[C@@H](CCCNC(=N)N)C(=O)N[C@H](C(=O)N[C@@H](CCC(N)=O)C(=O)N[C@@H](CCC(N)=O)C(=O)N[C@@H](CCCNC(=N)N)C(=O)N[C@@H](CCCCN)C(=O)NCC(=O)NCC(=O)N[C@@H](CCC(=O)O)C(=O)N[C@@H](CO)C(=O)N[C@@H](CCCCN)C(=O)N[C@@H](CCCCN)C(=O)N1CCC[C@H]1C(=O)N1CCC[C@H]1C(=O)N[C@@H](C)C(=O)N[C@@H](CCCCN)C(=O)N[C@@H](CC(C)C)C(=O)N[C@@H](CCC(N)=O)C(=O)N1CCC[C@H]1C(=O)N[C@@H](CCCNC(=N)N)C(=O)O)C(C)C)[C@@H](C)O [Chimeric motilin (II)(MG-i17G2)] (H-FVPIFTYGELQRVQQRKGGESKKPPAKLQPR-OH; N-terminus and C-terminus assumed)
- half-life ([1]; male, SD): 11.5 min

Structure (SMILES): CC[C@H](C)[C@H](NC(=O)[C@@H]1CCCN1C(=O)[C@@H](NC(=O)[C@@H](N)Cc1ccccc1)C(C)C)C(=O)N[C@@H](Cc1ccccc1)C(=O)N[C@H](C(=O)N[C@@H](Cc1ccc(O)cc1)C(=O)NCC(=O)N[C@@H](CCC(=O)O)C(=O)N[C@@H](CC(C)C)C(=O)N[C@@H](CCC(N)=O)C(=O)N[C@@H](CCCNC(=N)N)C(=O)N[C@H](C(=O)N[C@@H](CCC(N)=O)C(=O)N[C@@H](CCC(N)=O)C(=O)N[C@@H](CCCNC(=N)N)C(=O)N[C@@H](CCCCN)C(=O)NCC(=O)NCC(=O)N[C@@H](CCC(=O)O)C(=O)N[C@@H](CO)C(=O)NCC(=O)N[C@@H](CCCCN)C(=O)N[C@@H](CCCCN)C(=O)N1CCC[C@H]1C(=O)N1CCC[C@H]1C(=O)N[C@@H](C)C(=O)N[C@@H](CCCCN)C(=O)N[C@@H](CC(C)C)C(=O)N[C@@H](CCC(N)=O)C(=O)N1CCC[C@H]1C(=O)N[C@@H](CCCNC(=N)N)C(=O)O)C(C)C)[C@@H](C)O [Chimeric motilin (III) (MG-i17G2-19iG)] (H-FVPIFTYGELQRVQQRKGGESGKKPPAKLQPR-OH; N-terminus and C-terminus assumed)
- half-life ([1]; male, SD): 10.7 min

Structure (SMILES): CC[C@H](C)[C@H](NC(=O)[C@@H]1CCCN1C(=O)[C@@H](NC(=O)[C@@H](N)Cc1ccccc1)C(C)C)C(=O)N[C@@H](Cc1ccccc1)C(=O)N[C@H](C(=O)N[C@@H](Cc1ccc(O)cc1)C(=O)NCC(=O)N[C@@H](CCC(=O)O)C(=O)N[C@@H](CC(C)C)C(=O)N[C@@H](CCC(N)=O)C(=O)N[C@@H](CCCNC(=N)N)C(=O)N[C@H](C(=O)N[C@@H](CCC(N)=O)C(=O)N[C@@H](CCC(N)=O)C(=O)N[C@@H](CCCNC(=N)N)C(=O)N[C@@H](CCCCN)C(=O)N[C@@H](CCC(=O)O)C(=O)N[C@@H](CO)C(=O)N[C@@H](CCCCN)C(=O)N[C@@H](CCCCN)C(=O)N[C@@H](C)C(=O)N[C@@H](CCCCN)C(=O)N[C@@H](CC(C)C)C(=O)N[C@@H](CCC(N)=O)C(=O)N1CCC[C@H]1C(=O)N[C@@H](CCCNC(=N)N)C(=O)O)C(C)C)[C@@H](C)O [Chimeric motilin (IV)(MG-dPP)] (H-FVPIFTYGELQRVQQRKESKKAKLQPR-OH; N-terminus and C-terminus assumed)
- half-life [1]: 7.73 min

Structure (SMILES): CC[C@H](C)[C@H](NC(=O)[C@H](CCSC)NC(=O)[C@H](CCCCN)NC(=O)[C@H](CCCCN)NC(=O)[C@H](CO)NC(=O)[C@H](CCC(=O)O)NC(=O)[C@H](CCCCN)NC(=O)[C@H](CCCNC(=N)N)NC(=O)[C@H](CCC(N)=O)NC(=O)[C@H](CCC(N)=O)NC(=O)[C@@H](NC(=O)[C@H](CCCNC(=N)N)NC(=O)[C@H](CCC(N)=O)NC(=O)[C@H](CC(C)C)NC(=O)[C@H](CCC(=O)O)NC(=O)CNC(=O)[C@H](Cc1ccc(O)cc1)NC(=O)[C@@H](NC(=O)[C@H](Cc1ccccc1)NC(=O)[C@@H](NC(=O)[C@@H]1CCCN1C(=O)[C@@H](NC(=O)[C@@H](N)Cc1ccccc1)C(C)C)[C@@H](C)CC)[C@@H](C)O)C(C)C)C(=O)N[C@H](C(=O)N[C@H](C(=O)N[C@@H](CCCNC(=N)N)C(=O)O)[C@@H](C)CC)[C@@H](C)O [Chimeric motilin (IX)(MG-dPPS)] (H-FVPIFTYGELQRVQQRKESKKMITIR-OH; N-terminus and C-terminus assumed)
- half-life ([1]; male, SD): 4.39 min

Structure (SMILES): CC[C@H](C)[C@@H]1NC(=O)[C@H](CCCNC(=N)N)NC(=O)[C@H](CC(=O)O)NC(=O)[C@H](CCSC)NC(=O)[C@H](CCCNC(=N)N)NC(=O)CNC(=O)CNC(=O)[C@H](Cc2ccccc2)NC(=O)[C@@H](NC(=O)[C@H](CO)NC(=O)[C@H](CO)NC(=O)[C@H](CCCNC(=N)N)NC(=O)[C@H](CCCNC(=N)N)NC(=O)[C@H](CC(C)C)NC(=O)[C@@H](N)CO)CSSC[C@@H](C(=O)N[C@@H](CC(N)=O)C(=O)N[C@@H](CO)C(=O)N[C@@H](Cc2ccccc2)C(=O)N[C@@H](CCCNC(=N)N)C(=O)N[C@@H](Cc2ccc(O)cc2)C(=O)O)NC(=O)CNC(=O)[C@H](CC(C)C)NC(=O)CNC(=O)[C@H](CO)NC(=O)[C@H](CCC(N)=O)NC(=O)[C@H](C)NC(=O)CNC1=O [Native ANP, reference compound]
- AUC(0-inf) (in vivo; iv): 25 ng·h/mL
- C0 (in vivo; iv): 993 ± 208 ng/mL
- AUC(0-inf) (in vivo; sc): 8.92 ng·h/mL
- Cmax (in vivo; sc): 22.3 ± 5.3 ng/mL
- Tmax (in vivo; sc): 8.3 min
